# From patent US20260217647A1, “CANCER CELL GROWTH INHIBITING COMPOSITION AND PROCESSED FOOD” (HAGIHARA FARM PRODUCTION INSTITUTE CO., LTD., priority 2023, published 2026)
# System: Jurkat cells
# Experiment: Growth-inhibiting activity on human leukemia T cell line Jurkat cells (viable cell counting reagent SF, 72 h)
# Assay type: cell-based
# Details: 72 h incubation, cell viability by absorbance A450-A630
# Protocol: The cancer cell growth-inhibiting activity of each of the above samples was evaluated using the human leukemia T cell line, Jurkat.
# A suspension of Jurkat cells was prepared at 2×10^5 cells/mL, and 50 μL of the suspension was seeded into each well of a 96-well plate. The evaluation sample was dissolved in DMSO and subsequently diluted 500 fold with culture medium. Immediately after dilution, 50 μL of the resulting solution was added to each well to initiate treatment. After incubation for 72 h, 10 μL of the viable cell counting reagent SF was added to each well. Following incubation for 2 to 3 hours to allow color development, absorbance at 450 nm and 630 nm was measured using a microplate reader. Cell viability was then calculated using the following formula (F1).
# As, Ab, and Ac are defined as follows. • As: absorbance of evaluation well • Ab: absorbance of negative control well • Ac: absorbance of control well
# The respective “absorbances” in the above formula were calculated by subtracting the absorbance at 630 nm (A630) from the absorbance at 450 nm (A450) and was represented by “A450-A630”. Furthermore, to calculate IC50, a linear approximation was performed on a graph showing the logarithmic values of the two concentrations that most narrowly bracketed a cell viability of 50%.
structure (smiles),measurement,setting,value
CSC/C=C(\C)CCC[C@H](C)CCC[C@H](C)CCCC(C)C [PT37],IC50,,> 100 µM
same,IC50,"Homo sapiens, Jurkat, 72 h",≥ 100 µM
